Source: patent publication US12667101B2, “Picolinamide derivatives useful as agricultural fungicides” (GLOBACHEM NV, priority 2019, dated 2026)
In brackets after ≈: the same amount, converted by molar mass.

Tested on: Zymoseptoria tritici
Assay: Fungicidal activity screen in amended agar, 96 well plates
Type: cell-based
Settings: 168 h, 1% potato dextrose agar amended to 20, 2, 0.2 and 0.02 ppm, 10,000 spores/mL, 18° C., assessed after 7 days, read-out: Zymoseptoria (EC50 ranking of fungal growth vs DMSO controls)
Procedure: Compounds were screened in 96 well plates with 10 compounds per plate. Each compound was screened using agar amended to 20, 2, 0.2 and 0.02 ppm of the test material. Proline at 50 and 10 ppm and 0.2% DMSO were used respectively as positive and negative controls. Each test concentration and standard were tested twice on a plate.
Compounds were screened against Zymoseptoria tritici. The agar used in the test was 1% potato dextrose agar. Sufficient spores were added to the appropriate agar to give 10,000 spores/mL agar.
A ×10 stock solution in 2% DMSO was produced for each dose i.e. 200, 20, 2 and 0.2 ppm, and 10 μl of this added to the appropriate wells on the plate. An equivalent amount of 2% DMSO and Proline stock at 500 and 100 ppm were added for the controls. To each well, 90 μl of the appropriate agar spore suspension was added to give the final well concentrations outlined in the first paragraph.
Plates were incubated at room temperature (18° C.) and assessed after 7 days.
The amount of fungal growth in each well was compared to the DMSO controls and scored according to the following key: • A—EC50<2 ppm • B—2≤EC50<20 • C—EC50≥20 • D—No activity detected at the highest dose tested • NT—Not tested

Structure (SMILES)	EC50 [µg/mL]
COc1ccnc(C(=O)Nc2ccc3nc(Sc4ccc(F)cc4)ccc3c2)c1OC(C)=O [Example 29, 2-((2-((4-fluorophenyl)thio)quinolin-6-yl)carbamoyl)-4-methoxypyridin-3-yl acetate]	≥ 20
COc1ccnc2c(=O)n(-c3ccc4nc(N(C)c5cccnc5Cl)ccc4c3)c(=S)oc12 [Example 46, 3-(2-((2-chloropyridin-3-yl)(methyl)amino)quinolin-6-yl)-8-methoxy-2-thioxo-2,3-dihydro-4H-pyrido[2,3-e][1,3]oxazin-4-one]	≥ 20
CCCOc1ccc2cc(NC(=O)c3nccc(OC)c3O)ccc2n1 [Example 3, 3-hydroxy-4-methoxy-N-(2-propoxyquinolin-6-yl)picolinamide]	< 2
COc1ccnc(C(=O)Nc2ccc3cc(Br)ccc3n2)c1O [Example 15, N-(6-bromoquinolin-2-yl)-3-hydroxy-4-methoxypicolinamide]	2 to 20 (≈ 5.34 to 53.4 µM)
COc1ccnc(C(=O)Nc2ccc3nc(N(C)c4ccccc4Cl)ccc3c2)c1O [Example 23, N-(2((2-chlorophenyl)(methyl)amino)quinolin-6-yl)-3-hydroxy-4-methoxypicolinamide]	< 2
COc1ccnc(C(=O)Nc2ccc3nc(OCCC(C)C)ccc3c2)c1O [Example 7, 3-hydroxy-N-(2-(isopentyloxy)quinolin-6-yl)-4-methoxypicolinamide]	< 2
COc1ccnc(C(=O)Nc2ccc3nc(Oc4ccc(F)cc4)ccc3c2)c1O [Example 2, N-(2-(4-fluorophenoxy)quinolin-6-yl)-3-hydroxy-4-methoxypicolinamide]	< 2
COc1ccnc(C(=O)Nc2ccc3nc(OC(C)C)ccc3c2)c1OC(C)=O [Example 47, 2-((2-isopropoxyquinolin-6-yl)carbamoyl)-4-methoxypyridin-3-yl acetate]	< 2
COc1ccnc(C(=O)Nc2ccc3nc(Sc4cccnc4Cl)ccc3c2)c1O [Example 28, N-(2-((2-chloropyridin-3-yl)thio)quinolin-6-yl)-3-hydroxy-4-methoxypicolinamide]	≥ 20
CCCCCc1cc(Oc2ccc(F)cc2)nc2ccc(NC(=O)c3nccc(OC)c3O)cc12 [Example 21, N-(2-(4-fluorophenoxy)-4-pentylquinolin-6-yl)-3-hydroxy-4-methoxypicolinamide]	≥ 20
COc1ccnc(C(=O)Nc2ccc3nc(Cl)ccc3c2)c1O [Example 10, N-(2-chloroquinolin-6-yl)-3-hydroxy-4-methoxypicolinamide]	≥ 20
COc1ccnc(C(=O)Nc2ccc3nc(N(C)c4cccnc4Cl)ccc3c2)c1O [Example 25, N-(2-((2-chloropyridin-3-yl)(methyl)amino)quinolin-6-yl)-3-hydroxy-4-methoxypicolinamide]	2 to 20 (≈ 4.59 to 45.9 µM)
COc1ccnc(C(=O)Nc2ccc3nc(Oc4ccccc4Cl)ccc3c2)c1O [Example 20, N-(2-(2-chlorophenoxy)quinolin-6-yl)-3-hydroxy-4-methoxypicolinamide]	≥ 20
COc1ccnc(C(=O)Nc2ccc3ncc(Cc4ccccc4)cc3c2)c1O [Example 13, N-(3-benzylquinolin-6-yl)-3-hydroxy-4-methoxypicolinamide]	≥ 20
COc1ccccc1Oc1ccc2cc(-n3c(=S)oc4c(OC)ccnc4c3=O)ccc2n1 [Example 41, 8-methoxy-3-(2-(2-methoxyphenoxy)quinolin-6-yl)-2-thioxo-2,3-dihydro-4H-pyrido[2,3-e][1,3]oxazin-4-one]	≥ 20
COc1ccnc(C(=O)Nc2ccc3nc(Sc4ccc(F)cc4)ccc3c2)c1O [Example 9, N-(2-((4-fluorophenyl)thio)quinolin-6-yl)-3-hydroxy-4-methoxypicolinamide]	< 2
COc1ccnc(C(=O)Nc2ccc3nc(N(C)c4ccccc4Cl)ccc3c2)c1OC(C)=O [Example 32, 2-((2-((2-chlorophenyl)(methyl)amino)quinolin-6-yl)carbamoyl)-4-methoxypyridin-3-yl acetate]	< 2
